Data set [1] addresses Sodium-dependent serotonin transporter (Homo sapiens, UniProt P31645). The data set can be described thus: Displacement of [3H]imipramine from human recombinant SERT receptor expressed in HEK293 cells. The class given is cell-based. In general terms: Loss of bound radioactivity is the signal in a displacement assay; it reports binding, not function.
Data set [2] deals with Mus musculus. Nature of the data set: Antidepressant activity in mouse at 25 mg/kg, ip administered 30 mins before test by forced swimming test. The class given is functional, organism-based. Details: dose 25 mg/kg.
The target in data set [3] is T1, 5-hydroxytryptamine receptor 2C (Homo sapiens, UniProt P28335).
T1 sequence (P28335 whole entry): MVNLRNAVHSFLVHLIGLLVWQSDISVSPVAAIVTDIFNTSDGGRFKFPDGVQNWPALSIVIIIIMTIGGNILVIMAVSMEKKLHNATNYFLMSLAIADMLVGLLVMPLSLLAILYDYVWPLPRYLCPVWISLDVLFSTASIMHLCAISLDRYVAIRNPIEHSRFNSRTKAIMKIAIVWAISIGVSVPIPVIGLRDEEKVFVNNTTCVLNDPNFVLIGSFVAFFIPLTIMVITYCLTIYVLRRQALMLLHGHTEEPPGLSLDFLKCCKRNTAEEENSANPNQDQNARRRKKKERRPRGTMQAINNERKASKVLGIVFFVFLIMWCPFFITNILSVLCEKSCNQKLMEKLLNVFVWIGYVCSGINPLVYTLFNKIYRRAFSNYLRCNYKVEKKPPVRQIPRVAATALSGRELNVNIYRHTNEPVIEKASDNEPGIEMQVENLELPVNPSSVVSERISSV
Nature of the data set: Displacement of [3H]mesulergine from human recombinant 5HT2C receptor expressed in CHO-K1 cells. The class given is cell-based.

The test system of data set [4] is Mus musculus. Nature of the data set: Toxicity in mouse assessed as induction of hyperactivity measured for 30 mins at 25 mg/kg, ip measured by spontaneous locomotor activity assay. Format: organism-based. Details: dose 25 mg/kg, route intraperitoneal. The note with it: in vivo, 0.5 h.
Data set [5] has as its system Mus musculus. The data set can be described thus: Toxicity in mouse assessed as induction of hypoactivity measured for 30 mins at 25 mg/kg, ip measured by spontaneous locomotor activity assay. The class given is organism-based. The note with it: in vivo, 0.5 h. Details: dose 25 mg/kg, route intraperitoneal.
Data set [6] deals with 5-hydroxytryptamine receptor 2A (Homo sapiens, UniProt P28223). Nature of the data set: Displacement of [3H]ketanserin from human recombinant 5HT2A receptor expressed in CHO-K1 cells. The class given is cell-based.
Data set [7] addresses Voltage-gated inwardly rectifying potassium channel KCNH2 (Homo sapiens, UniProt Q12809). Nature of the data set: Inhibition of human ERG channel.
A further data set deals with Cytochrome P450 2D6 (Homo sapiens, UniProt P10635). The data set can be described thus: Inhibition of CYP2D6. Format: ADME.
The next data set deals with Cytochrome P450 2C9 (Homo sapiens, UniProt P11712). The data set can be described thus: Inhibition of CYP2C9. Format: ADME.
In the next data set the target is Cytochrome P450 3A4 (Homo sapiens, UniProt P08684). The data set can be described thus: Inhibition of CYP3A4. Format: ADME.
For a further data set, the target named is T2, Cytochrome P450 1A2 (Homo sapiens, UniProt P05177).
T2 sequence (P05177 whole entry): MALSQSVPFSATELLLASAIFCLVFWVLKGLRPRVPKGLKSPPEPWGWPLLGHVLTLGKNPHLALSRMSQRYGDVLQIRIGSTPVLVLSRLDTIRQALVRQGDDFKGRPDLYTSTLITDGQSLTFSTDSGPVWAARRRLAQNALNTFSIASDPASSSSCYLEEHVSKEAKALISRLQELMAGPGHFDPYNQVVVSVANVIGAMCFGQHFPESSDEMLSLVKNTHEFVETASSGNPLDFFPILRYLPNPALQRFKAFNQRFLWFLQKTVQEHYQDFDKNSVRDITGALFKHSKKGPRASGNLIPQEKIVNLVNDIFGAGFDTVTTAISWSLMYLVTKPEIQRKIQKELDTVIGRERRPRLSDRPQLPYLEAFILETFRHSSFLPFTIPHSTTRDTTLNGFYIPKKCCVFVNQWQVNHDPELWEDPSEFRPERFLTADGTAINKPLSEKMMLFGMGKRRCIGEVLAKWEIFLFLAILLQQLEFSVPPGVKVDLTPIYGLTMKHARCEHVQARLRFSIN
The data set can be described thus: Inhibition of CYP1A2. Format: ADME.

A word on the pIC50: it is −log10 of the IC50, conventionally taken in molar units.

pIC50: −log10 of the molar value. Calls of active or inactive are those of the source. No cut-off for these calls is given here.

Chain of 5-hydroxytryptamine receptor 2A (P28223 whole entry): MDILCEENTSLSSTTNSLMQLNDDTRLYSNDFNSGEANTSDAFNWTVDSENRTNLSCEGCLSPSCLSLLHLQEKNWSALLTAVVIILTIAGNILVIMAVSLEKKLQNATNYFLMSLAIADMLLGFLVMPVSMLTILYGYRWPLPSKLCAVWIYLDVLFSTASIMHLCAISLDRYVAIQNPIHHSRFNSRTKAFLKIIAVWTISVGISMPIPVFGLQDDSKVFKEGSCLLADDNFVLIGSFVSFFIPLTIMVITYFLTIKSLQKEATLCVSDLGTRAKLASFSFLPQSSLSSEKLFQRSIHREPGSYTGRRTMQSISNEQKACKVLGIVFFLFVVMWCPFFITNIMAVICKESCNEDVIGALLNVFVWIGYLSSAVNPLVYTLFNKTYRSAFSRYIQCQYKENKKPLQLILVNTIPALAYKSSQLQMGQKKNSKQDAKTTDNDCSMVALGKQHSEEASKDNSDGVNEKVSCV
Chain of Sodium-dependent serotonin transporter (P31645 whole entry): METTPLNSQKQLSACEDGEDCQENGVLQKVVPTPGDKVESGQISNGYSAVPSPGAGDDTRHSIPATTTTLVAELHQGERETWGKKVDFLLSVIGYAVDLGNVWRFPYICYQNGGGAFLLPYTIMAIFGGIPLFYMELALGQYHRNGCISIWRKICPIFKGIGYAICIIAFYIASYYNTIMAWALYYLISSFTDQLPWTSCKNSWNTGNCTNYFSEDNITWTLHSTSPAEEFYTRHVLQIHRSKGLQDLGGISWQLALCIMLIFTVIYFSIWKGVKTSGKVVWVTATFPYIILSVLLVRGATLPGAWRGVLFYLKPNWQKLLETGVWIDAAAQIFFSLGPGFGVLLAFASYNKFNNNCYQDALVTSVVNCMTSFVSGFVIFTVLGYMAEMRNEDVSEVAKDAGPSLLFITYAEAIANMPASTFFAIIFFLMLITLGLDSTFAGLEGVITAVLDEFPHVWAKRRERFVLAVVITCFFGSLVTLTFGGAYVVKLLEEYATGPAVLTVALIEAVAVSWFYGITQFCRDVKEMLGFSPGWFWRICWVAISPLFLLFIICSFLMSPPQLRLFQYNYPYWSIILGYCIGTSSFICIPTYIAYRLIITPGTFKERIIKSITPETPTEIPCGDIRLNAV
Chain of Voltage-gated inwardly rectifying potassium channel KCNH2 (Q12809 whole entry): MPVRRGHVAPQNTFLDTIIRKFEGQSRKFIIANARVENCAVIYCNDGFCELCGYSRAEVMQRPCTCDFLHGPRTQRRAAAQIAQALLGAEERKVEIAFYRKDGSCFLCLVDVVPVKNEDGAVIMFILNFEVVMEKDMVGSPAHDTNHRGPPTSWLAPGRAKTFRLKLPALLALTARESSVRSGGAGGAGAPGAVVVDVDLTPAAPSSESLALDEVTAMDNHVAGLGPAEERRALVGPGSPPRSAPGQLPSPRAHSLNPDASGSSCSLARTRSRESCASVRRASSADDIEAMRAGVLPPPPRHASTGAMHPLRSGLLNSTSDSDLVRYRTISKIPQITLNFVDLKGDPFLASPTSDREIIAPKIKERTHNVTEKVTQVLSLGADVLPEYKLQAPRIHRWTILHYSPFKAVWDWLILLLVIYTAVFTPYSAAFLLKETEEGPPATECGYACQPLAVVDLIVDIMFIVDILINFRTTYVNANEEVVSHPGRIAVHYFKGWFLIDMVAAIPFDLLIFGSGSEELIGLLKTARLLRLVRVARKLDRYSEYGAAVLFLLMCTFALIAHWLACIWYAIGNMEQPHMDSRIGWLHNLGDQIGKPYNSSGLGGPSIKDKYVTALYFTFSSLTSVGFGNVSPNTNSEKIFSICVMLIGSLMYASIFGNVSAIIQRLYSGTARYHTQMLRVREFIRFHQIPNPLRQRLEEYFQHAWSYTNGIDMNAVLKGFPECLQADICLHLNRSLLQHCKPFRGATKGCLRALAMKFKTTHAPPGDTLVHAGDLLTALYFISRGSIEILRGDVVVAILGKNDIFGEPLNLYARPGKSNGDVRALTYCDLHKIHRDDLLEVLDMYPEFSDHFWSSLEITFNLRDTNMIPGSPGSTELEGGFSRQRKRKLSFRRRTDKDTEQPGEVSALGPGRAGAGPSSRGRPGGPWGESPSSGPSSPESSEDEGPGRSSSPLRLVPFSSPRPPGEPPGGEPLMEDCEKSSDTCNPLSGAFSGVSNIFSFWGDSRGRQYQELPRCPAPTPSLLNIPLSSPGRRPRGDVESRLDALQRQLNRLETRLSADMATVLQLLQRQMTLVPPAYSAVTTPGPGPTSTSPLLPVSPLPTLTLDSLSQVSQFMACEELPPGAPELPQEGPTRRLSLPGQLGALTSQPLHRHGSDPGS
Chain of Cytochrome P450 2C9 (P11712 whole entry): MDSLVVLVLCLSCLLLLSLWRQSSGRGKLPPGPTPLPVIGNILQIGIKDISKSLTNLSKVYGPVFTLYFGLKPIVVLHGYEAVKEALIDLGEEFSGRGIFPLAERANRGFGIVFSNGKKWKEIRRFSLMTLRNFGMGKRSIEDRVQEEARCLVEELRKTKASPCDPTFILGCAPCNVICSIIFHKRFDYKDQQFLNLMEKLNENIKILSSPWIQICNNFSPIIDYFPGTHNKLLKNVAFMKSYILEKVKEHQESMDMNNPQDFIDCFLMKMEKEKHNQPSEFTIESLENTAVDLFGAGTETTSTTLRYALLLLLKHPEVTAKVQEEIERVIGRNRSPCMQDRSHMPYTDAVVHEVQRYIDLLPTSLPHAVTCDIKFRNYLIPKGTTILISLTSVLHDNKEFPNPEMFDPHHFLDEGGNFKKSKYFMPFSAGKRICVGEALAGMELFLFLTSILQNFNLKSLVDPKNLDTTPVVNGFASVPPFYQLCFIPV
Chain of Cytochrome P450 2D6 (P10635 whole entry): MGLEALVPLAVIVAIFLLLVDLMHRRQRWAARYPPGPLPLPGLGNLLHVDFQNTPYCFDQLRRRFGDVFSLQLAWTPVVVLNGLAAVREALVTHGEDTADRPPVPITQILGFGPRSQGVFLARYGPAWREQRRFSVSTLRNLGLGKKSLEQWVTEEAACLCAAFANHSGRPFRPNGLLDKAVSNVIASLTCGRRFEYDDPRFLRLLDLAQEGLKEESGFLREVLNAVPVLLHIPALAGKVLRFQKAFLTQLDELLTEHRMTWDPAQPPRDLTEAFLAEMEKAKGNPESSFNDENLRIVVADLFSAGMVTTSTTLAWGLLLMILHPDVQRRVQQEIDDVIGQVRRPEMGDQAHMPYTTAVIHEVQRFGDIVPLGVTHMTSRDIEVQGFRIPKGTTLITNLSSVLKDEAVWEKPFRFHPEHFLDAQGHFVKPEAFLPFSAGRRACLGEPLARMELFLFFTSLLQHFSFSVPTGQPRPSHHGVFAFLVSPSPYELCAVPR
Chain of Cytochrome P450 3A4 (P08684 whole entry): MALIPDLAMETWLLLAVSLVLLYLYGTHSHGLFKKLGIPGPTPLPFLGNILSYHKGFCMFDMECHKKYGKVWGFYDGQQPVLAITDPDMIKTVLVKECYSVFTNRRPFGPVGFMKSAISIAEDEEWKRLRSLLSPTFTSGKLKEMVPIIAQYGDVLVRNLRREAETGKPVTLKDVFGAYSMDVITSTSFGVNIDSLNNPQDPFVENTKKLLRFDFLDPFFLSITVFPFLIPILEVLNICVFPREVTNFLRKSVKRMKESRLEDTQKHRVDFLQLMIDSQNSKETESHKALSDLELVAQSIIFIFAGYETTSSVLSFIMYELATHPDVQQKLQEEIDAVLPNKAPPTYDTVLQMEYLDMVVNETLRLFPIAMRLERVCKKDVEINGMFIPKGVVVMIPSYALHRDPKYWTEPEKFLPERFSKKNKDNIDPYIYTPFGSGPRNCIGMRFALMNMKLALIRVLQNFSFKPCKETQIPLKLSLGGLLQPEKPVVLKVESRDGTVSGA

Take `Cc1nc(C(=O)NCCCN2CCN(c3cccc(Cl)c3Cl)CC2)cc(C(C)C)n1.Cl`: the pIC50 in [1] is 6.19; in data set [3], 6.64; in [6], 6.95; in [7] it was 5.27. In addition, in the data set with Mus musculus [2], the outcome was Active. The Activity entry in the data set with Mus musculus [4] and in the data set on Mus musculus [5] was “Non-toxic” in each case.
For `COc1c(C)nc(C)nc1C(=O)NCCN1CCN(c2cccc(C)c2C)CC1.Cl`, the pIC50 was 5.68 in [1], 5.90 in data set [3] and 6.07 in [6]. Besides, the Activity result with Mus musculus [4] and in the data set with Mus musculus [5] was “Non-toxic” each time.
Take `Cc1nc(C(=O)NCCCN2CCN(c3cccc(C)c3C)CC2)cc(C(C)(C)C)n1.Cl`: the pIC50 is 6.14 in data set [1], 6.24 in data set [3], 6.34 in data set [6] and 5.23 in data set [7]. For the same compound, the Activity entry in the data set with Mus musculus [4] and with Mus musculus [5] was “Non-toxic” throughout.
For `CSc1nc(C)cc(C(=O)NCCN2CCN(c3cccc(Cl)c3Cl)CC2)n1.Cl`, the pIC50 in data set [1] was 6.06; in data set [3], 7.09; in data set [6], 7.26. The outcome with Mus musculus [2] was Active. Besides, the Activity result in the data set on Mus musculus [4] and with Mus musculus [5] was “Non-toxic” throughout.
`Cc1cc(C(=O)NCCN2CCN(c3cccc(C)c3C)CC2)nc(C(C)(C)C)n1.Cl`: the pIC50 was 5.20 in [1], 6.31 in data set [3] and 7.16 in data set [6]. The Activity entry in the data set with Mus musculus [4] and in the data set with Mus musculus [5] was “Non-toxic” in each case.
Consider `CSc1nc(C)cc(C(=O)NCCN2CCN(c3cccc(C)c3C)CC2)n1.Cl`, for which the pIC50 in data set [1] is 5.99; on Cytochrome P450 2D6, < 4.70; against Cytochrome P450 2C9, < 4.70; against Cytochrome P450 3A4 it was < 4.70; in data set [3], 6.83; against Cytochrome P450 1A2, < 4.70. In [6], the pIC50 was 7.33. For the same compound, the result in the data set on Mus musculus [2] was Active. Moreover, the Activity entry in the data set with Mus musculus [4] and in the data set with Mus musculus [5] was “Non-toxic” throughout.
Take `Cc1cc(C(=O)NCCCN2CCN(c3cccc(C)c3C)CC2)nc(C2CC2)n1.Cl`: the negative logarithm of the IC50 (pIC50) was 6.46 in data set [1], 5.93 in [3] and 6.59 in [6]. The Activity result in the data set with Mus musculus [4] and in the data set on Mus musculus [5] was “Non-toxic” in each case.
On to `CSc1nc(C)cc(C(=O)NCCCN2CCN(c3cccc(C)c3C)CC2)n1.Cl`, for which the values for the pIC50 in data set [1], in data set [3] and in data set [6] were 6.40, 5.93 and 7.27, respectively. Also, the outcome in the data set with Mus musculus [2] was Active. In addition, the Activity entry in the data set with Mus musculus [4] and in the data set on Mus musculus [5] was “Non-toxic” throughout.
As to `Cc1cc(C(=O)NCCCN2CCN(c3cccc(C)c3C)CC2)nc(C(C)(C)C)n1.Cl`, the pIC50 is 6.27 in data set [1], 5.57 in [3] and 6.56 in data set [6]. The Activity entry in the data set on Mus musculus [4] and in the data set with Mus musculus [5] was “Non-toxic” in each case.
With `COc1c(C)nc(C)nc1C(=O)NCCCN1CCN(c2cccc(C)c2C)CC1.Cl`, the pIC50 was 6.05 in data set [1], 5.69 in data set [3] and 6.13 in data set [6]. Besides, the Activity result in the data set on Mus musculus [5] was “Toxic”.
`Cc1nc(C(=O)NCCCN2CCN(c3cccc(Cl)c3Cl)CC2)cc(-c2ccccc2)n1`: the pIC50 is 6.23 in data set [1], 7.52 in data set [3] and 7.46 in [6].
As to `Cc1cc(C(=O)NCCCN2CCN(c3cccc(Cl)c3Cl)CC2)nc(C)n1.Cl`, the pIC50 is 6.54 in data set [1], 6.21 in data set [3] and 6.78 in [6]. Besides, the result in the data set with Mus musculus [2] was Active. Besides, in the data set with Mus musculus [4], the Activity result is given as “Non-toxic”.
Take `COc1c(C)nc(C)nc1C(=O)NCCN1CCN(c2cccc(Cl)c2Cl)CC1.Cl`: the pIC50 is 6.19 in [1], 6.87 in data set [3] and 6.58 in [6]. Also, the Activity result in the data set with Mus musculus [4] and in the data set on Mus musculus [5] was “Non-toxic” in each case.
In the case of `Cc1nc(C(=O)NCCCN2CCN(c3cccc(C)c3C)CC2)cc(C(C)C)n1.Cl`, the pIC50 in data set [1] was 5.92; in [3], 5.81; in [6], 6.31. The Activity result in the data set on Mus musculus [4] and with Mus musculus [5] was “Non-toxic” each time.

(Values after ChEMBL document CHEMBL1268978, “Arylpiperazine-containing pyrimidine 4-carboxamide derivatives targeting serotonin 5-HT(2A), 5-HT(2C), and the serotonin transporter as a potential antidepressant” (Bioorg Med Chem Lett, 2010).)
